Test results from publication PMC13672995, “NCR13 peptide protects soybean against Cercospora sojina using multi-faceted modes of action and additive interaction with chemical fungicides” (Journal of Experimental Botany, 2025).
“Also recorded” adds a separate entry of the source. Where no end group is shown, it is not given here.

Columns and labels:
[1] = test system: C. sojina QoI fungicide-resistant isolate Cs350; format: cell-based, Cercospora sojina
Experimental: (§1) In vitro antifungal activity of AFPs and QoI fungicides was determined using 96-well plate assays as described ([Velivelli et al., 2020]) with slight modifications. Briefly, 2- to 3-week-old C. sojina was used to make a conidial suspension in 2× SFM at the final concentration of ∼10^5 conidia ml^−1. Simultaneously, peptide dilutions (in water) at various concentrations were made. Fungicides were dissolved in 50% acetone and 50% water to make a stock solution of 500 µM, and serial dilutions were made in water as needed. The peptide–conidia or the fungicide–conidia mixture at the ratio of 1:1 (45 µl:45 µl) was added in a 96-well plate and incubated at room temperature for 48 h, after which MICs of the peptides/fungicides were calculated based on microscopy as well as the resazurin cell viability assay ([Velivelli et al., 2020]).

C. sojina conidia = experiment: ROS measurement with H2DCFDA; format: cell-based, Cercospora sojina; settings: 1.5 μM peptide, 15 µM H2DCFDA
Experimental: The reactive oxygen species (ROS) indicator dye 2′,7′-dichlorodihydrofluorescein diacetate (H2DCFDA) was used to evaluate ROS induction in C. sojina cells. Cercospora sojina conidia (∼1×10^5 conidia ml^−1) in SFM at various concentrations of iron (FeSO4) were mixed with 15 µM H2DCFDA amd 1.5 µM NCR13_PFV1, and the fluorescence measurements were taken in a Tecan plate reader M200 PRO at excitation and emission wavelengths of 485 nm and 535 nm, respectively, every 30 min for 15 h. ROS induction in C. sojina was visualized using time-lapse confocal microscopy (×63 water immersion objective lens, HC PL Apochromat CS2). The C. sojina conidia grown for 4–5 h in SFM at various concentrations of iron were treated with 15 µM H2DCFDA and 1.5 µM DyLight550-NCR13_PFV1 followed by acquisition of z-stacks using a Leica SP8-X confocal microscope. The excitation and emission wavelengths of DyLight550-NCR13_PFV1 and H2DCFDA were 560 nm, 575–650 nm, and 485 nm, 500–540 nm, respectively.

C. sojina Cs350 cells = experiment: Uptake and subcellular localization by time-lapse confocal microscopy; format: cell-based, Cercospora sojina; settings: DyLight550-labeled peptide; nuclear localization mostly at 0.75 μM (0.5× MIC); Hoechst, CMAC and BODIPY co-staining
Experimental: NCR13_PFV1 was labeled with DyLight550 amine-reactive dye following the manufacturer’s instructions (Thermo Scientific), and time-lapse confocal microscopy was performed to measure the uptake and subcellular localization of the peptide in C. sojina Cs350 cells. The nuclear staining dye Hoechst 3352 was used along with DyLight550-NCR13_PFV1 to determine the subcellular localization of NCR13_PFV1 in C. sojina. Conidia grown for 6–8 h were treated with 0.75 µM Dylight550-NCR13_PFV1 and incubated for 30 min, after which 4 µM Hoechst 3352 dye was added for another 15 min. Treated conidia were used to capture z-stacks at specific time intervals using a Leica SP8-X confocal microscope (×63 water immersion objective lens, HC PL Apochromat CS2) in fluorescence and transmitted light mode. The excitation and emission wavelengths of DyLight550-NCR13_PFV1 and Hoechst 3352 were 550 nm, 560–660 nm, and 405 nm, 420–500 nm, respectively. Similarly, to determine the subcellular localization of NCR13_PFV1 in other organelles, C. sojina conidia were also stained with the vacuole-specific dye CMAC and the lipid staining dye BODIPY 493/503 (Thermo Scientific). The excitation and emission wavelengths for CMAC and BODIPY were 405 nm, 420–500 nm, and 493 nm, 505–540 nm, respectively.

[2] = test system: azoxystrobin-resistant C. sojina Cs350 conidia; experiment: Cell death detection assay (propidium iodide, confocal microscopy); format: cell-based, Cercospora sojina; settings: NCR13_PFV1 1.5 μM alone; within 1 h; PI staining; n=3
Experimental: The fungicidal activity of azoxystrobin and peptide NCR13_PFV1 in azoxystrobin-resistant C. sojina Cs350 was analyzed by visualizing the influx of a cell death indicator dye propidium iodide (PI) using time-lapse confocal microscopy. The C. sojina conidia were treated with various concentrations of azoxystrobin, NCR13_PFV1, azoxystrobin plus NCR13_PFV1, or water and 0.5 μg ml^–1 PI, and were observed under confocal microscopy at an excitation and emission wavelength of 500 nm and 545–690 nm, respectively. Z-stacks at each time point were acquired using a ×63 water immersion objective lens (HC PL Apochromat CS2). For each sample, the number of live and dead cells after 1 h of peptide, fungicide, or combination treatment was determined.

C. sojina rRNA = experiment: Electrophoretic mobility shift assay (EMSA); format: binding, Cercospora sojina; settings: ~200 ng C. sojina RNA, 10 mM Tris–HCl pH 8.0, 1 mM EDTA, 1 h, room temperature
Experimental: To determine the RNA binding ability of NCR13_PFV1, EMSA was performed as described in [Godwin et al. (2024)]. Briefly, total RNA was extracted from C. sojina Cs350 grown in SFM using the ZymoBIOMICS DNA/RNA Miniprep Kit (Zymo Research). Approximately 200 ng of the fungal RNA was mixed with different concentrations of NCR13_PFV1 in 20 μl of binding buffer (10 mM Tris–HCl, pH 8.0, 1 mM EDTA), incubated at room temperature for 1 h, and run through gel electrophoresis.

[3] = test system: C. sojina Cs350 conidia and germlings; experiment: Plasma membrane permeabilization assay (SYTOX Green); format: cell-based, Cercospora sojina
Experimental: Membrane permeabilization of C. sojina Cs350 by NCR13_PFV1 and azoxystrobin was analyzed by visualizing the influx of SYTOX Green (SG) (Thermo Scientific) using time-lapse confocal microscopy. Germlings grown for 6–8 h or conidia of C. sojina were mixed with various concentrations of NCR13_PFV1, azoxystrobin, or both and 0.5 µM SG and were observed under confocal microscopy at an excitation wavelength of 500 nm and an emission wavelength ranging from 510 nm to 600 nm at specific time intervals. A z-stack at each time point was acquired using a ×63 water immersion objective lens (HC PL Apochromat CS2).

[4] = test system: C. sojina QoI fungicide-sensitive isolate Cs320; experiment: microbe, parasite or virus in culture; format: cell-based, Cercospora sojina; settings: SFM, ~10^5 conidia ml−1, room temperature, 48 h; resazurin cell viability assay and microscopy
Experimental: as §1

B. cinerea = experiment: In vitro antifungal activity against B. cinerea; format: cell-based, Botrytis cinerea

TKPCQSDKDCKKFACRKPKVPKCINGFCKCVR (disulfide (positions not given here)) [NCR13_PFV1, chickpea nodule-specific cysteine-rich 32 amino acid peptide, disulfide cross-linking variant 1, expressed in Pichia pastoris]
MIC in SFM without iron ([1]; 0 μM FeSO4, 2 d): 0.75 µM | change of MIC with calcium supplementation ([1]; CaCl2, up to 20 μM): No change in MIC | MIC in SFM with ≥7.5 μM iron ([1]; FeSO4 up to 60 μM, 2 d): 3 µM | change of MIC with manganese supplementation ([1]; MnSO4, various concentrations): No change in MIC | MIC (μM) against C. sojina, Fungicide resistant, Cs350 ([1]; SFM, ~10^5 conidia ml−1, room temperature, 48 h, resazurin cell viability assay and microscopy): 1.5 µM | change of MIC with zinc supplementation ([1]; ZnSO4, various concentrations): No change in MIC | ROS induction (C. sojina conidia): accumulates ROS | ROS level over time at iron >20 μM (C. sojina conidia; read every 30 min for 15 h): did not increase with time | subcellular localization (C. sojina Cs350 cells): localized to the nucleus; also recorded: no evidence of co-localization of the peptide with either lipid bodies or the vacuole | cell death [2]: 57% | concentration from which binding to rRNA was observed (C. sojina rRNA): 6 µM | plasma membrane permeabilization (SYTOX Green uptake) ([3]; Cs350, 0.5 µM SG, confocal microscopy): permeabilization of the plasma membrane | time to plasma membrane permeabilization of conidia and germlings ([3]; SYTOX Green uptake): ≤ 10 min | MIC (μM) against C. sojina isolates, Fungicide sensitive, Cs320 [4]: 0.75 µM | fold increase in MIC against B. cinerea with increasing iron (B. cinerea; iron from 5 µM to 30 μM): 4 fold | MIC against B. cinerea at low iron (B. cinerea; medium with 5 µM iron): 0.375 µM | MIC against B. cinerea at high iron (B. cinerea; medium with 30 μM iron): 1.5 µM
